Assay results reported in EP4818168A1, “FUSED RING COMPOUND, PHARMACEUTICAL COMPOSITION THEREOF AND USE THEREOF” (priority 2023, dated 2025).
Like-named read-outs stand apart in the source and are kept apart here.

How the values were obtained:
H82 cells = assay: cells; assay type: cell-based; details: Homo sapiens
How it was run: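 After 6 days' compound treatment at 37 °C (final DMSO 0.1%, RPMI1640/10% FBS), viable H82 cells were quantified by ATP-dependent CellTiter-Glo luminescence. Remaining activity was calculated against DMSO and medium wells, and a sigmoidal fit gave IC50.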

AURKA = biological target: T1, AURKA (Homo sapiens, UniProt O14965); assay type: cell-based
T1 construct: endogenous in cells; host or cells: Jurkat cells
T1 sequence (O14965 1-403): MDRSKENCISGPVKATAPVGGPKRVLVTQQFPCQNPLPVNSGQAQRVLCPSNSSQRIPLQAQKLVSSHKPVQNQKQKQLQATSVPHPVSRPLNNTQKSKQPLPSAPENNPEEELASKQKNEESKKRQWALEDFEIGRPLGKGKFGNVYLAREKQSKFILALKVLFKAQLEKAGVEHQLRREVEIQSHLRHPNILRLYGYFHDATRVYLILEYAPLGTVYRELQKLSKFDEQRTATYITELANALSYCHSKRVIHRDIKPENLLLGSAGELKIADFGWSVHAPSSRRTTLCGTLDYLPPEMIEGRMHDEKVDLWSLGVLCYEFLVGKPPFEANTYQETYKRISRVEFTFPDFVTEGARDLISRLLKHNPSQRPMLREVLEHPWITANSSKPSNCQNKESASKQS
How it was run: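 AURKA degradation read by western blot: band signal, fluorescent or chemiluminescent, curve-fitted to derive DC50. Cells were Jurkat, plated at 1×10^6 cells/500 µL with compound, then lysed and blotted onto nitrocellulose, primary antibody overnight at 4°C.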

[1] = NCI-H82, read-out: IC50 in H82 Cells
[2] = 100 nM compound, Jurkat cells, 24 h, Table 2
[3] = 1 µM compound, Jurkat cells, 24 h, Table 2
[4] = NCI-H82, H82 cells, 4000 cells/well, CellTiter-Glo, read-out: IC50 in H82 Cells

Structure (SMILES)	IC50 (H82 cells; [1]) [µM]	Percentage of AURKA Degradation Induced by 100 nM Compound in Jurkat Cells (AURKA; [2])	Percentage of AURKA Degradation Induced by 1 µM Compound in Jurkat Cells (AURKA; [3])	IC50 (H82 cells; [4]) [µM]	Percentage of AURKA Degradation Induced by 100 nM Compound in Jurkat Cells (AURKA)	Percentage of AURKA Degradation Induced by 1 µM Compound in Jurkat Cells (AURKA)
O=C1CCN(c2ccc(N3CCC4(CC3)C[C@@H](N3CCN(c5ccc(Nc6ncc7c(n6)-c6ccc(Cl)cc6C(c6c(F)cccc6F)=NC7)cc5)CC3)CO4)nc2)C(=O)N1 [Compound A341]	< 1	+++ (Degradation > 70%)	+++ (Degradation > 70%)	–	–	–
O=C1CCN(c2ccc(N3CCC4(CC3)C[C@H](N3CCN(c5ccc(Nc6ncc7c(n6)-c6ccc(Cl)cc6C(c6c(F)cccc6F)=NC7)cc5)CC3)CO4)nc2)C(=O)N1 [Compound A342]	< 1	+++ (Degradation > 70%)	+++ (Degradation > 70%)	–	–	–
O=C1CCN(c2ccc(N3CCOC(C(=O)N4CCN(c5ccc(Nc6ncc7c(n6)-c6ccc(Cl)cc6C(c6nccs6)=NC7)cc5)CC4)C3)nc2)C(=O)N1 (stereo not drawn) [Compound A343]	–	+++ (Degradation > 70%)	+++ (Degradation > 70%)	< 1	–	–
O=C1CCN(c2ccc(N3CCC4(CC3)CC(N3CCN(c5ccc(Nc6ncc7c(n6)-c6ccc(Cl)cc6C(c6nccs6)=NC7)cc5)CC3)CO4)nc2)C(=O)N1 (stereo not drawn) [Compound A345]	–	+++ (Degradation > 70%)	+++ (Degradation > 70%)	< 1	–	–
O=C1CCN(c2ccc(N3CCC4(CC3)CN(C3CCN(c5ccc(Nc6ncc7c(n6)-c6ccc(Cl)cc6C(c6c(F)cccc6F)=NC7)cc5)CC3)CCO4)nc2)C(=O)N1 [Compound A346]	< 1	–	–	–	+++ (key: +: Degradation ≤ 30%; ++: 30% < Degradation ≤ 70%; +++: Degradation > 70%)	+++ (key: +: Degradation ≤ 30%; ++: 30% < Degradation ≤ 70%; +++: Degradation > 70%)
O=C1CCN(c2ccc(N3CCC4(CC3)CN(C3CCN(c5cccc(Nc6ncc7c(n6)-c6ccc(Cl)cc6C(c6c(F)cccc6F)=NC7)c5)CC3)CCO4)nc2)C(=O)N1 [Compound A347]	< 1	–	–	–	+++ (key: +: Degradation ≤ 30%; ++: 30% < Degradation ≤ 70%; +++: Degradation > 70%)	+++ (key: +: Degradation ≤ 30%; ++: 30% < Degradation ≤ 70%; +++: Degradation > 70%)
O=C1CCN(c2ccc(N3CCC(N4CCC(c5ccc(Nc6ncc7c(n6)-c6ccc(Cl)cc6C(c6c(F)cccc6F)=NC7)cc5)C(F)(F)C4)CC3)nc2)C(=O)N1 (stereo not drawn) [Compound A350]	< 1	+++ (Degradation > 70%)	+++ (Degradation > 70%)	–	–	–
O=C1CCN(c2ccc(N3CCC4(CC3)CC(N3CCC(c5ccc(Nc6ncc7c(n6)-c6ccc(Cl)cc6C(c6c(F)cccc6F)=NC7)cc5)C(F)(F)C3)CO4)nc2)C(=O)N1 (stereo not drawn) [Compound A351]	–	+++ (Degradation > 70%)	+++ (Degradation > 70%)	< 1	–	–
O=C1CCN(c2ccc(N3CCC4(CC3)CN(C3CN(c5ccc(Nc6ncc7c(n6)-c6ccc(Cl)cc6C(c6c(F)cccc6F)=NC7)cc5)C3)CCO4)nc2)C(=O)N1 [Compound A352]	< 1	+++ (Degradation > 70%)	+++ (Degradation > 70%)	–	–	–
O=C1CCN(c2ccc(N3CCC4(CC3)CN(CC3CN(c5ccc(Nc6ncc7c(n6)-c6ccc(Cl)cc6C(c6c(F)cccc6F)=NC7)cc5)C3)CCO4)nc2)C(=O)N1 [Compound A353]	–	+++ (Degradation > 70%)	+++ (Degradation > 70%)	< 1	–	–
O=C1CCN(c2ccc(N3CCC4(CC3)CCN(C3CCN(c5ccc(Nc6ncc7c(n6)-c6ccc(Cl)cc6C(c6c(F)cccc6F)=NC7)cc5)CC3)CCO4)nc2)C(=O)N1 [Compound A355]	< 1	+++ (Degradation > 70%)	+++ (Degradation > 70%)	–	–	–
O=C1CCN(c2ccc(N3CC4COCC(C3)N4C3CCN(c4ccc(Nc5ncc6c(n5)-c5ccc(Cl)cc5C(c5c(F)cccc5F)=NC6)cc4)CC3)nc2)C(=O)N1 [Compound A356]	–	+++ (Degradation > 70%)	+++ (Degradation > 70%)	< 1	–	–
O=C1CCN(c2ccc(N3CCC(N4C5COCC4CN(c4ccc(Nc6ncc7c(n6)-c6ccc(Cl)cc6C(c6c(F)cccc6F)=NC7)cc4)C5)CC3)nc2)C(=O)N1 [Compound A357]	–	++ (30% < Degradation ≤ 70%)	+ (Degradation ≤ 30%)	< 1	–	–
O=C1CCN(c2ccc(N3CC4COCC(C3)N4CC3CN(c4ccc(Nc5ncc6c(n5)-c5ccc(Cl)cc5C(c5c(F)cccc5F)=NC6)cc4)C3)nc2)C(=O)N1 [Compound A358]	–	+++ (Degradation > 70%)	+++ (Degradation > 70%)	< 1	–	–
O=C1CCN(c2ccc(N3CC4COCC(C3)N4CC3CCN(c4ccc(Nc5ncc6c(n5)-c5ccc(Cl)cc5C(c5c(F)cccc5F)=NC6)cc4)CC3)nc2)C(=O)N1 [Compound A359]	–	+++ (Degradation > 70%)	+++ (Degradation > 70%)	< 1	–	–
O=C1CCN(c2ccc(N3CC4COCC(C3)N4C3CC4(CCN(c5ccc(Nc6ncc7c(n6)-c6ccc(Cl)cc6C(c6c(F)cccc6F)=NC7)cc5)CC4)C3)nc2)C(=O)N1 [Compound A360]	–	+++ (Degradation > 70%)	+++ (Degradation > 70%)	< 1	–	–
O=C1CCN(c2ccc(N3CCC4(CC3)CC(N3CCN(C56CC(Nc7ncc8c(n7)-c7ccc(Cl)cc7C(c7c(F)cccc7F)=NC8)(C5)C6)CC3)CO4)nc2)C(=O)N1 (stereo not drawn) [Compound A361]	–	+++ (Degradation > 70%)	+++ (Degradation > 70%)	< 1	–	–
Cn1nc(N2CCC(=O)NC2=O)c2ccc(N3CC4COCC(C3)N4C3CCN(c4ccc(Nc5ncc6c(n5)-c5ccc(Cl)cc5C(c5c(F)cccc5F)=NC6)cc4)CC3)cc21 [Compound A362]	< 1	+++ (Degradation > 70%)	++ (30% < Degradation ≤ 70%)	–	–	–
COc1cccc(F)c1C1=NCc2cnc(Nc3ccc(N4CCN(C5COC6(CCN(c7ccc(N8CCC(=O)NC8=O)cn7)CC6)C5)CC4)cc3)nc2-c2ccc(Cl)cc21 (stereo not drawn) [Compound A363]	–	+++ (Degradation > 70%)	+++ (Degradation > 70%)	< 1	–	–
Cn1nc(N2CCC(=O)NC2=O)c2cccc(N3CCC4(CC3)CC(N3CCN(c5ccc(Nc6ncc7c(n6)-c6ccc(Cl)cc6C(c6c(F)cccc6F)=NC7)cc5)CC3)CO4)c21 (stereo not drawn) [Compound A364]	< 1	+++ (Degradation > 70%)	+++ (Degradation > 70%)	–	–	–
Cn1nc(N2CCC(=O)NC2=O)c2ccc(N3CCC4(CC3)CC(N3CCN(c5ccc(Nc6ncc7c(n6)-c6ccc(Cl)cc6C(c6c(F)cccc6F)=NC7)cc5)CC3)CO4)cc21 (stereo not drawn) [Compound A365]	–	+++ (Degradation > 70%)	+++ (Degradation > 70%)	< 1	–	–
